Assays:
NIO mice (Balb/C) = test: acute toxicity in normal NIO mice; format: in vivo, mouse; conditions: single-dose 300 mg/kg DFO equiv or 100 mg/kg DFO equiv every 2 days x6, tail-vein, 14 days
Description: Normal NIO mice (Balb/C, Female, 6 weeks old), randomly divided into 7 groups (n=6), were treated with saline, single-dose (300 mg/kg DFO equiv) or multiple-dose (100 mg/kg DFO equiv every 2 days, six doses total) regimens of DFO, rPR-DFO, and rPR-OH (same concentrations as rPR-DFO based on w/v) via tail-vein injections (10 μL/g). Mice were monitored for 14 days for signs of acute toxicity based on body weight loss, changes in appetite, and changes in behavior such as altered gait and lethargy. The body weights of the mice were recorded every other day over the course of the study. Mice were euthanized by CO2 overdose on the 14th day. The lungs, heart, spleen, kidneys, brain and liver of animals were subsequently harvested, rinsed with fresh PBS, blotted dry with Whatman filter paper, and then weighed (note that organ weight is reported as mg of total organ weight per g of animal bw, mg/g). […] Mice also behaved normally and no changes in appetite were noted.

[1] = test system: NIO J774A.1 macrophage cells; test: in vitro cytotoxicity, resazurin assay, NIO cells; format: cell-based; conditions: Mus musculus, J774.A1, 48 h, rPR-DFO at equivalent DFO concentrations, read-out: concentration inhibiting 50% cell viability
Description: Briefly, both NIO and IO J774A.1 macrophage cells were seeded in 96-well plates at a density of 3,000 cells/well, cultured at 37° C., 5% CO2 and 100% humidity with DMEM complete medium for 24 h. Cells were then treated with 1 mM free DFO or rPR-DFO at equivalent DFO concentrations (prepared by 1:3 serial dilutions) for 48 h; equivalent rPR-OH based on w/v to rPR-DFO concentrations was also investigated. Next, the substrate resazurin was dissolved in cell culture medium at a concentration of 44 μM, added to each well (100 μl), and incubated at 37° C. for 4 h. The fluorescence change was monitored by exciting at 560 nm and measuring emission at 590 nm with a SpectraMax Gemini EM microplate reader. Readings from wells without cells were used as Eblank, and the readings from control cells without treatment (Econtrol) represented 100% cell viability. The viability of treated cells was calculated by the following equation:

[2] = in humans; cited from earlier work

## CC(=O)N(O)CCCCCNC(=O)CCC(=O)N(O)CCCCCNC(=O)CCC(=O)N(O)CCCCCN [DFO, Deferoxamine]
NIO mice (Balb/C)
  acute toxicity based on body weights and organ weights: no apparent evidence of acute toxicity
[1]
  IC50: ~10 µM
[2]
  half-life (blood circulation): ca. 20 min

Source: patent US20210008220A1, “PHARMACEUTICAL COMPOSITIONS CONTAINING POLYROTAXANES” (UNIVERSITY OF GEORGIA RESEARCH FOUNDATION, INC., priority 2018, published 2021)
